# Tests used:
# [1] = test system: 2-oxocarboxylic acid reductase; experiment: Relative rates of reduction of 2-oxocarboxylic acids, enzyme from P. vulgaris; type: biochemical, Proteus vulgaris; conditions: rate for phenylpyruvate taken as 1
# Description: In an electrochemical cell, 25 ml of a solution of 100 mM potassium phosphate buffer at pH 7.0, 4 mM methylviologen and 40 mM phenylpyruvate were reduced with 0.5 mg of 2-oxoacid reductase according to Example 3 at a voltage of -700 mV, against a standard calomel electrode. The current of 5.8 mA decreased sharply after 9 hours. According to HPLC analysis, the reaction solution contained 88% of the phenyllactic acid expected. The solution was acidified to pH 1.8 with dilute sulfuric acid and then extracted with ether. […] A pure commercial preparation of (2S)-sodium phenyllactate gave a value of -21.4°, measured under the same conditions. (R)-mandelic acid and (R)-2-hydroxy-4-methylpentanoate were prepared by a similar method.
# 3-Oxocarboxylic acids and hydroxyacetone are not reduced.
# [2] = test system: 2-oxocarboxylic acid reductase; experiment: Relative rates of reduction of 2-oxocarboxylic acids, enzyme from P. mirabilis; type: biochemical, Proteus mirabilis; conditions: for Relative rates (of reduction): P. mirabilis enzyme, rate for phenylpyruvate taken as 1
# [3] = test system: 2-oxocarboxylic acid reductase
# [4] = test system: 2-oxocarboxylic acid reductase; experiment: Initial rates with increasing concentrations of oxidized methylviologen, P. vulgaris enzyme; type: biochemical, Proteus vulgaris; conditions: 2-oxo-4-methylpentanoate, pH 7.0
# Description: (§1) In the presence of increasing concentrations of MV^++ and 0.15 mM MV^+, the initial rates show the following behavior:
# (§2) (0.3 ml of 0.1M trisacetate buffer of pH 7.0, 2 μmole of 2-oxo-4-methylpentanoate, the same amount of enzyme in each case, 0.2 mM of reduced methylviologen and the concentrations of oxidized methylviologen stated in the table were incubated in a 2 mm cell.)
# [5] = test system: 2-oxocarboxylic acid reductase; experiment: Initial rates with increasing concentrations of oxidized methylviologen, P. mirabilis enzyme; type: biochemical, Proteus mirabilis; conditions: for Initial rate: P. mirabilis, 2-oxo-4-methylpentanoate, pH 7.0
# Description: as §1, §2
smiles,measurement,setting,value
CC(C)(CO)C(=O)C(=O)O [2-Oxopantoate],Relative rates (of reduction),[1],0.04
same,Relative rates (of reduction),[2],0.07
O=C(O)CN(CCN(CC(=O)O)CC(=O)O)CC(=O)O [EDTA],effect on the activity of the enzyme,[3],not affected
CC(=O)CO [Hydroxyacetone],Reduction by the enzyme (in words),[2],not reduced
same,Relative rates (of reduction),[2],0
"C[n+]1ccc(-c2cc[n+](C)cc2)cc1 [MV^++, methylviologen]",Initial rate,[4]; MV++ 0.01 mM,13.3 U/ml
same,Initial rate,[4]; MV++ 0.08 mM,24.4 U/ml
same,Initial rate,[4]; MV++ 0.16 mM,31.3 U/ml
same,Initial rate,[4]; MV++ 0.75 mM,41.5 U/ml
same,effect on the activity of the enzyme (in words),[5],can be increased
same,Initial rate,[5]; MV++ 0.01 mM,18.1 U/ml
same,Initial rate,[5]; MV++ 0.08 mM,41.9 U/ml
same,Initial rate,[5]; MV++ 0.16 mM,46.0 U/ml
same,Initial rate,[5]; MV++ 0.75 mM,62.0 U/ml

# — patent US4622301A, “2-Oxocarboxylic acid reductase and its preparation” (BASF Aktiengesellschaft, priority 1983, dated 1986)
